Patent US20230115176A1 (Ra Pharmaceuticals, Inc., priority 2019, published 2023)
Converted amounts (≈) assume the structure as drawn.

Columns and labels:
[1] = Permeability assay, unidirectional transport, Papp (Example 30, Table 34); format: in vitro ADME, canine; settings: dog, pH 7.4; MDCK-WT cell monolayers, A-to-B, 3 μM test compound, 37° C., duplicate determinations
Description: (§1) Permeability assays were carried out to provide a preliminary indication of suitability for oral dosing and compound permeability across the blood brain barrier. Unidirectional and bidirectional compound transport across Madin Darby canine kidney (MDCK) cell monolayers was assessed. For unidirectional transport assessment, transport across MDCK wild type (MDCK-WT) cell monolayers was assessed. For bidirectional transport, transport across MDCK-MDR1 cell monolayers was assessed. MDCK-MDR1 cells express the MDR1 gene encoding the P-glycoprotein (P-gp) efflux protein.
(§2) MDCK-WT and MDCK-MDR1 cells were plated onto permeable polycarbonate supports in 12-well Costar transwell plates and allowed to grow and differentiate for 3 days. After 3 days in culture, the culture medium (DMEM supplemented with 10% FBS) was removed from both sides of the transwell inserts and cells were rinsed with warm HBSS. After the rinse step, the chambers were filled with warm transport buffer (HBSS containing 10 mM HEPES, 0.25% BSA, pH 7.4) and the plates were pre-incubated at 37° C. for 30 minutes prior to TEER (Trans Epithelial Electric Resistance) measurements.
(§3) The buffer in the donor chamber (apical side for A-to-B assay, basolateral side for B-to-A assay) was removed and replaced with the working solution (3 μM test compound and 10 μM for control compounds in transport buffer). The plates were then placed at 37° C. under light agitation. At designated time points (30, 60 and 90 min), an aliquot of transport buffer from the receiver chamber was removed and replenished with fresh transport buffer. Samples were quenched with ice-cold ACN containing internal standard and then centrifuged to pellet protein. Resulting supernatants were further diluted with 50/50 ACN/H2O (Atenolol diluted in just water) and submitted for LC-MS/MS analysis. Apparent permeability (Pap) values were calculated from duplicate determinations. Atenolol and propranolol were tested as low and […] permeability references.
Papp values indicate extent of compound permeation across monolayers.

Human C5 [2] = target: T1, Human C5 (Homo sapiens, UniProt P01031); test: Red blood cell (RBC) hemolysis assay, luminescent (Example 13, Table 22); format: cell-based; settings: sheep EA cells, […] C5-depleted human serum, 0.5 nM human C5, 1 hour 37° C., luminescence
T1 construct: purchased Complement Technology
Source text: Compound CU0136 is a racemic mixture of Compound CU0186 and CU0187. Numbers in parenthesis following compound numbers indicate alternate enantiomers (as distinguished by retention time during chromatographical separation).

[3] = Kinetic solubility in PBS pH 7.4, HPLC-UV (Example 21, Table 27); format: physicochemical; settings: phosphate buffered saline, aqueous buffer, kinetic from dmso stock, 0.5 M PBS, shaken minimum 24 h at approximately 25° C., HPLC-UV 270 nm
How it was run: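 Supernatant measured by HPLC-UV (270 nm) against a DMSO calibration curve of 15.6–500.0 μM after filtration. Triplicate samples were made from 10 mM DMSO stock in 0.05 M phosphate buffer pH 7.4 (5% DMSO) and shaken at least 24 h at about 25 °C.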

[4] = test system: P-glycoprotein (P-gp, MDR1); test: Permeability assay, bidirectional transport, efflux ratio (Example 30, Table 34); format: in vitro ADME, canine; settings: dog, MDCK-MDR1, pH 7.4; read-out: MDCK-MDR efflux ratio
Description: as §1, §2, §3
Efflux ratios were calculated for bidirectional transport across MDCK-MDR1 cell monolayers as an indication of compound efflux by P-gp. The efflux ratio is calculated using the ratio of mean Papp values for B to A transport to mean Papp values for A to B transport [Papp(BA)/Papp(AB)].

[5] = target: human C5 complement protein (Homo sapiens, UniProt P01031); test: Surface plasmon resonance (SPR), immobilized human C5, 37° C. (Example 27, Table 31); format: binding; settings: lowest value obtained where a range of concentrations was analyzed (Table 31)
Human C5 [6] = target: T1, Human C5; test: Red blood cell (RBC) hemolysis assay, luminescent (Example 28, Table 32); format: cell-based; settings: sheep EA cells, 1.5% C5-depleted human serum, 0.5 nM human C5, 1 hour at 37° C., luminescence (Table 32)
Description: Sheep red blood cells coated with rabbit anti-sheep erythrocyte antiserum (EA cells; Complement Technology, Tyler, Tex.) were used to assay compound inhibitory activity of the classical complement activation pathway. Briefly, the EA cells were washed once and resuspended in the same volume of GVB++ buffer (Complement Technology, Tyler, Tex.). 25 μL of EA cells were then distributed into each well of 384-well tissue culture plates using Apricot iPipette Pro (Apricot Designs; Covina, Calif.). Compounds were tested in 10 points of final concentrations ranging from 16.67 μM to 1.65 μM in a 6-fold titration series. Compounds were dispensed into 384-well plates from 6.7 mM and 3.35 μM DMSO working stocks using an HP Digital Dispenser (HP; Corvallis, Oreg.). The reactions also contained 1.5% (v/v) C5-depleted human serum (Complement Technology). Hemolysis was induced by addition of human C5 (Complement Technology) at a concentration of 0.5 nM and plates were incubated for 1 hour at 37° C. in a cell culture incubator. The extent of hemolysis was measured by ability of released hemoglobin to catalyze luminol in the presence of hydrogen peroxide. Luminescence was then measured using a plate reader. Luminescence measurements were used to prepare a dose-response curve. From the curve, the half maximal inhibitory concentration (IC50) for each compound was determined, where the IC50 represents the concentration of each compound needed to reduce red blood cell hemolysis by half.

Human C5 [7] = target: T1, Human C5; test: Surface plasmon resonance (SPR), compounds on immobilized human C5 (Example 2, Table 5); format: binding; settings: lowest value where a range of compound concentrations were analyzed
Description: Surface plasmon resonance (SPR) technology was used to evaluate affinity, specificity, and kinetics of interactions between compounds and complement protein C5 in real time without the need for labeling.
SensiQ FE SPR system (SensiQ Technologies, Oklahoma City, Okla.) was used to provide sensitive and accurate detection of binding of small molecules to the very large C5 protein (MW=195,000 Da). The chip was prepared by preconditioning the sensor according to the protocol of the SensiQ FE using 10 mM HCl, 50 mM NAOH and 0.1% SDS. The sensor chip was activated by using a mixture of fresh EDAC (1-ethyl-3-(-3-dimethylaminopropyl) carbodiimide) (Sigma Co., St. Louis, Mo.) and NHS (N-hydroxy succinimide) (Sigma Co., St. Louis, Mo.). Human C5 was surface immobilized to a Pioneer Biosensor chip via random amine coupling (>12,000 RU) which makes use of the N-terminus and ε-amino groups of lysine residues of the protein ligand. Immobilization was done by injecting 30-40 μg/ml C5 in 10 mM NaAc pH 4.5 onto designated channels at a rate of 10 μL/minute for 12 minutes, targeting RL>12000 RU for small molecules.
Compounds were diluted in DMSO in a format of 100-fold final concentration and 3-fold serial dilution (5 or 6 dilutions). The 100-fold compounds were transferred to one-fold DMSO-free assay buffer in the 96-well test plate. The compound solution was injected at a rate of 60 μL/minute for 30-60 seconds, followed by 60-90 seconds dissociation time, buffer flushing and/or priming. Blank solution (1% DMSO assay buffer) was run for every 6 injections of compounds. Double reference by subtracting both blank channel and reference channel was applied for data processing. Titration of C5 binding compounds to the C5-immobilized biosensor chip surface led to interactions between C5 and potential binders, and the resulting changes of surface refractive index were sensitively measured by the system.
SPR data were analyzed with the managing software provided by SensiQ and equilibrium dissociation constant (KD) values were determined for each compound. Where a range of compound concentrations were analyzed, the lowest value obtained is presented.

Human C5 [8] = target: T1, Human C5; test: Hemolysis assay, luminescent, classical complement pathway (Example 4, Table 7); format: cell-based; settings: sheep EA cells, 1.5% C5-depleted human serum, 0.5 nM human C5, luminescence readout
Source text: Numbers in parenthesis following the compound number indicate alternate enantiomers (as distinguished by retention time during chromatographical separation).

purified human C5 = purified human C5 (Homo sapiens, UniProt P01031); test: Red blood cell hemolysis assay, optical, absorbance 412 nm (Example 3, Table 6); format: cell-based; settings: antibody-sensitized sheep erythrocytes, 1.5% human C5 depleted sera, 0.5 nM human C5; average where replicates
Chain of purified human C5 (P01031 19-1676): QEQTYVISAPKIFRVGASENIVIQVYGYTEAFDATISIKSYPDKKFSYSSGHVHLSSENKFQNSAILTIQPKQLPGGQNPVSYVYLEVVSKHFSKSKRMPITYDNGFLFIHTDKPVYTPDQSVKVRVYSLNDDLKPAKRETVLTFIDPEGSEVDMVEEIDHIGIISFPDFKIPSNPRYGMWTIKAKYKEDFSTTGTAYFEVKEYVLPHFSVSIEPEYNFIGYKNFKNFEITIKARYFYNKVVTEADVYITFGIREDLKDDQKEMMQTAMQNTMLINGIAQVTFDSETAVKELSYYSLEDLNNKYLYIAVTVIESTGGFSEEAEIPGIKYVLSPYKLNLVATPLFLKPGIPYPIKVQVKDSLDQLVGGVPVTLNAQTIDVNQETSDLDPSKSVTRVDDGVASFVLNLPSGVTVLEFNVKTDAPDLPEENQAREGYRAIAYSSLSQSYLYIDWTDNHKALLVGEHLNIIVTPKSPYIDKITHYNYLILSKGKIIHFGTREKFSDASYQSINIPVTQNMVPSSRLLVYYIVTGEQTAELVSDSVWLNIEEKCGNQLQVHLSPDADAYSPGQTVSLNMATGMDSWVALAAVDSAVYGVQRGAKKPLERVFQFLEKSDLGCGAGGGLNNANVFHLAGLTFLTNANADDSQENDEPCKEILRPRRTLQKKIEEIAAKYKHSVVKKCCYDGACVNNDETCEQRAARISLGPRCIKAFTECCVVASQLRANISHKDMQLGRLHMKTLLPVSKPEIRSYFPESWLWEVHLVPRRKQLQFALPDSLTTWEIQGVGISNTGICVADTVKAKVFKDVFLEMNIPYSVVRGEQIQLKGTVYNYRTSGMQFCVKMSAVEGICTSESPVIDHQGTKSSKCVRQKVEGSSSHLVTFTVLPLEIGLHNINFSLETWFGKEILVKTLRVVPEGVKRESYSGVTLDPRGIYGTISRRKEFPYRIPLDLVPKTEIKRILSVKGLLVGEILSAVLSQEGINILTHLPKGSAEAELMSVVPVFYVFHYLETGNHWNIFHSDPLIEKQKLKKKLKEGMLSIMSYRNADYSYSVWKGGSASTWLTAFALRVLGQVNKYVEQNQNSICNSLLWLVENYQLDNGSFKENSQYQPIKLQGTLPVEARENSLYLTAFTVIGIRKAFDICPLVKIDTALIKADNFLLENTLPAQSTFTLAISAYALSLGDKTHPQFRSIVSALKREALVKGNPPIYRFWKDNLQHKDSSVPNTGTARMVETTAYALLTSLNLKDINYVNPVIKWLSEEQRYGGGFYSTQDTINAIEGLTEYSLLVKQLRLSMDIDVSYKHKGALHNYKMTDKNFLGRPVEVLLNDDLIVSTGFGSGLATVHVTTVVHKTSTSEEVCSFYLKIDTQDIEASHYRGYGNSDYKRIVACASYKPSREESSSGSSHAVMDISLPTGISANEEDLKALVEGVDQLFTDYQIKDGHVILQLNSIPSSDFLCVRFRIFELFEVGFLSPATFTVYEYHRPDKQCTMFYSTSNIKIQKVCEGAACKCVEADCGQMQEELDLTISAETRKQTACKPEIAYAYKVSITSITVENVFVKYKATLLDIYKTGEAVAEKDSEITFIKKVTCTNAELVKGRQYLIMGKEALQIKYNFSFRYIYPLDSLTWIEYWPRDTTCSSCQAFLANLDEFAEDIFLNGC
Description: Experiments were carried out using a red blood cell (RBC) hemolysis assay to assess compound inhibition of RBC lysis. […] The assay was carried out using 1.5% human C5 depleted sera and 0.5 nM purified human C5.
GVB++ buffer (Complement Technology, Tyler, Tex.) was heated at 37° C. for a minimum of 20 minutes. The human C5 depleted sera and purified human C5 were rapidly thawed at 37° C. and then stored on ice or wet ice, respectively. The compound stock (10 mM, DMSO) was serially diluted in 100% DMSO to obtain ten 6-fold dilutions before addition of GVB++. Sera dilution was prepared by adding 5 mL of GVB++ to a 15 mL conical tube, removing 600 μL of the GVB++ and adding 600 μL of the 100% sera. The tube was mixed by inverting three times. A volume of 25 μL of the diluted sera was added to each well so that the final concentration of sera in the well was 1.5%. C5 dilution was prepared by adding 5 mL of GVB++ to a 15 mL conical tube, removing 4 μL of the GVB++ and adding 4 μL of the C5 stock. The tube was mixed by inverting three times. A volume of 25 μL was added to each well so that the final amount of C5 was 0.5 nM in each well. The antibody-sensitized sheep erythrocytes (EAs) were centrifuged at 1,000× gravity at 22° C. for 3 minutes. The supernatant was pipetted off without disrupting the pellet. The pellet was then resuspended in GVB++ with the same volume removed. Resuspended EAs were mixed by gently inverting the tube.
Five controls were run on each plate: (1) EAs only=100 μL EAs+50 μL GVB++ with 4% DMSO+50 μL GVB++; (2) EA+Sera=100 μL EAs+50 μL GVB++ with 4% DMSO+25 μL Sera dilution+25 μL GVB++; (3) EA+C5=100 μL EAs+50 μL GVB++ with 4% DMSO+25 μL C5 dilution+25 μL GVB++; (4) EA+Sera+C5=100 μL EAs+50 μL GVB++ with 4% DMSO+25 μL Sera dilution+25 μL C5; (5) GVB++ Only=200 μL GVB++. Other wells included: GVB++ with 4% DMSO=20 μL DMSO+480 μL GVB++. All samples were analyzed in duplicate. The compound dose response curve was generated using samples prepared with 100 μL EA+50 μL compound dilution+25 μL C5 dilution+25 μL sera dilution.
Test plates were prepared by adding 100 μL of EAs, 50 μL of compound dilution, 25 μL of sera dilution, and 25 μL of C5 dilution to individual wells of a 96-well tissue culture-treated clear microtitre plate (USA Scientific, Ocala, Fla.) and resuspending by pipetting up and down three times. The samples were incubated at 37° C. for one hour. At the completion of the incubation, the plates were centrifuged at 1,000× gravity for 3 minutes. 100 μl of supernatant were transferred to a new plate and the absorbance was read at 412 nm. Data was fit with a log-logit formula producing a dose-response curve and IC50.
“IC50” refers to the half maximal inhibitory concentration, where the value is the concentration of the inhibitor needed to reduce red blood cell hemolysis by half. Where replicate analysis was conducted, average IC50 values are provided along with standard deviation (SD) values.

T1 sequence (P01031 19-1676): as above
Chain of human C5 complement protein (P01031 19-1676): as above

COc1cc(CC(=O)N(C)C)ccc1CN1CCCN(c2ccc(OC)c(OCCCC(C)(F)F)c2)C1=O [CU0140]
Papp A→B at 3 μM [1]: 26 ×10⁻⁶ cm/s
IC50 (Human C5 [2]): 15.8 nM
solubility kinetic [3]: 404 µM (≈ 216 µg/mL)
efflux ratio at 3 μM [4]: 63

COc1cc(CC(=O)N2CCOCC2)ccc1CN1CCCN(c2ccc(OC)c(OCCCC(C)(F)F)c2)C1=O [CU0145]
Papp A→B at 3 μM [1]: 16.8 ×10⁻⁶ cm/s
IC50 (Human C5 [2]): 15 nM
solubility kinetic [3]: 278 µM (≈ 160 µg/mL)
efflux ratio at 3 μM [4]: 83

CCCCCOc1cc(N2CCCN(Cc3ccc(CNC(C)=O)cc3OC)C2=O)ccc1OC [CU0160]
Papp A→B at 3 μM [1]: 21.6 ×10⁻⁶ cm/s
IC50 (Human C5 [2]): 23.5 nM
solubility kinetic [3]: 413 µM (≈ 200 µg/mL)
efflux ratio at 3 μM [4]: 61

COc1cc(CNC(C)=O)ccc1CN1CCCN(c2ccc(OC)c(OCCCC3CC3)c2)C1=O [CU0501]
Papp A→B at 3 μM [1]: 24.2 ×10⁻⁶ cm/s
solubility kinetic [3]: 195 µM (≈ 96.6 µg/mL)
efflux ratio at 3 μM [4]: 60

CCCCCOc1cc(N2CCCN(Cc3ccnc4c3c(Cl)cn4CC(=O)N3CC4CC(C3)O4)C2=O)ccc1OC [CU0506]
Papp A→B at 3 μM [1]: 21.1 ×10⁻⁶ cm/s
efflux ratio at 3 μM [4]: 59

CCCCCOc1cc(N2CCCN(Cc3ccnc4c3c(Cl)cn4CC(=O)N3C[C@H]4C[C@@H]3CO4)C2=O)ccc1OC [CU0510]
Papp A→B at 3 μM [1]: 22.7 ×10⁻⁶ cm/s
efflux ratio at 3 μM [4]: 71

CCCCCOc1cc(N2CCCN(Cc3ccc(CNC(C)=O)cc3OC)C2=O)ncc1OC [CU0579]
Papp A→B at 3 μM [1]: 23.5 ×10⁻⁶ cm/s
solubility kinetic [3]: 339 µM (≈ 164 µg/mL)
efflux ratio at 3 μM [4]: 31

CCCCCOc1cc(N2CCCN(Cc3ccnc4c3c(Cl)cn4CC(=O)N(C)C)C2=O)cnc1OC [CU0616]
Papp A→B at 3 μM [1]: 29 ×10⁻⁶ cm/s
efflux ratio at 3 μM [4]: 18

COc1ccc(N2CCCN(Cc3ccnc4c3c(Cl)cn4CC(=O)N(C)C)C2=O)cc1Br [CU0689]
Papp A→B at 3 μM [1]: 23.8 ×10⁻⁶ cm/s
efflux ratio at 3 μM [4]: 8

CCCCCOc1cc(N2CC[C@H](C)N(Cc3ccnc4c3c(Cl)cn4CC(=O)N3CCOC3)C2=O)ccc1OC [SC0113]
Papp A→B at 3 μM [1]: 17.9 ×10⁻⁶ cm/s
Kd [5]: 0.02 nM
IC50 (Human C5 [6]): 1.3 nM

CCCCCOc1cc(N2CC[C@H](C)N(Cc3cccc4c3c(Cl)cn4CC(=O)N3CCOC(CN(C)C)C3)C2=O)ccc1OC (stereo partly drawn) [SC0154]
Kd [5]: 0.04 nM
solubility kinetic [3]: 315 µM (≈ 206 µg/mL)
IC50 (Human C5 [6]): 2.3 nM

CCCCCOc1cc(N2CC(C)CN(Cc3ccc(CC(=O)N4CCNC(=O)C4)cc3OC)C2=O)ccc1OC (stereo not drawn) [SC0163]
Kd [5]: 0.89 nM
solubility kinetic [3]: 450 µM (≈ 255 µg/mL)
IC50 (Human C5 [6]): 2.8 nM

CCCCCOc1cc(N2CC(CO)CN(Cc3ccc(CC(=O)N(C)C)cc3OC)C2=O)ccc1OC (stereo not drawn) [SC0172]
Kd [5]: 2.25 nM
solubility kinetic [3]: 490 µM (≈ 259 µg/mL)
IC50 (Human C5 [6]): 3.8 nM

COc1ccc(N2CC[C@H](C)N(Cc3cccc4c3ccn4CC(=O)N(C)C)C2=O)cc1OCCCC1CC1 [SC0174]
Kd [5]: 0.78 nM
solubility kinetic [3]: 40 µM (≈ 21.3 µg/mL)
IC50 (Human C5 [6]): 4.3 nM

CCCCCOc1cc(N2CC(CO)CN(Cc3ccc(CC(=O)N4CCNC(=O)C4)cc3OC)C2=O)ccc1OC (stereo not drawn) [SC0178]
Kd [5]: 1.07 nM
solubility kinetic [3]: 443 µM (≈ 258 µg/mL)
IC50 (Human C5 [6]): 4.8 nM

CCCCCOc1cc(N2CC(CO)CN(Cc3ccc(CC(=O)N4CCOCC4)cc3OC)C2=O)ccc1OC (stereo not drawn) [SC0183]
Kd [5]: 3.88 nM
solubility kinetic [3]: > 500 µM
IC50 (Human C5 [6]): 5.3 nM

CCCCCOc1cc(N2CC(CO)CN(Cc3ccc(CC(=O)N4CCCC4)cc3OC)C2=O)ccc1OC (stereo not drawn) [SC0184]
Kd [5]: 2.94 nM
solubility kinetic [3]: 411 µM (≈ 228 µg/mL)
IC50 (Human C5 [6]): 5.7 nM

COc1ccc(NC(=O)N[C@@H](CO)c2ccccc2OC)cc1OCCCC(C)C [SM0002]
Kd (Human C5 [7]): 14 nM
IC50 (Human C5 [8]): 11.9 nM
IC50 (purified human C5): 21.9 nM

COc1ccccc1CNC(=O)Nc1ccc(OC)c(OCCCC(C)C)c1 [SM0006]
Kd (Human C5 [7]): 18 nM
IC50 (Human C5 [8]): 37.6 nM
IC50 (purified human C5): 125 nM

CCCCOc1cc(NC(=O)N[C@@H](CO)c2ccccc2)ccc1OC [SM0035]
IC50 (Human C5 [8]): 328 nM
IC50 (purified human C5): 1180 nM

COc1ccc(NC(=O)NCc2ccccc2OC(F)F)cc1OCCCC(C)C [SM0104]
Kd (Human C5 [7]): 210 nM
IC50 (Human C5 [8]): 558 nM

C#CC(=O)NCc1cc(OC)c(OCCCCC)cc1NC(=O)N1CCC[C@@H]1c1ccccc1Cl [SM0201]
IC50 (Human C5 [8]): 89.5 nM

CCCCCOc1cc(NC(=O)N2CCC[C@@H]2c2ccccc2Cl)c(CNC(=O)/C=C/CN(C)C)cc1OC [SM0202]
IC50 (Human C5 [8]): 240 nM

CCCCCOc1cc(NC(=O)N2CCC[C@@H]2c2ccccc2Cl)c(CNC(=O)CCl)cc1OC [SM0203]
IC50 (Human C5 [8]): 255 nM

CCCCCOc1cc(NC(=O)N(CC(=O)O)Cc2cc(F)ccc2OC)ccc1OC [SM0204]
IC50 (Human C5 [8]): 753 nM

CCCCCOc1cc(NC(=O)N(CC(=O)NCc2cccnc2)Cc2cc(F)ccc2OC)ccc1OC [SM0205]
IC50 (Human C5 [8]): 1290 nM

CCCCCOc1cc(NC(=O)N(CC(=O)NCCN2CCCC2)Cc2cc(F)ccc2OC)ccc1OC [SM0206]
IC50 (Human C5 [8]): 2060 nM

CCCCCOc1cc(NC(=O)N(CC(=O)NCC2CC(=O)N(C)C2)Cc2cc(F)ccc2OC)ccc1OC (stereo not drawn) [SM0208]
IC50 (Human C5 [8]): 914 nM

CCCCCOc1cc(NC(=O)N(CC(=O)NC2CCN(C(C)=O)CC2)Cc2cc(F)ccc2OC)ccc1OC [SM0209]
IC50 (Human C5 [8]): 1140 nM

CCCCCOc1cc(NC(=O)N(CC(=O)N2CCOCC2)Cc2cc(F)ccc2OC)ccc1OC [SM0210]
IC50 (Human C5 [8]): 2120 nM

CCCCCOc1cc(NC(=O)N(CC(=O)N(C)C)Cc2cc(F)ccc2OC)ccc1OC [SM0211]
IC50 (Human C5 [8]): 1910 nM

CCCCCOc1cc(NC(=O)N(CC(=O)NC)Cc2cc(F)ccc2OC)ccc1OC [SM0212]
IC50 (Human C5 [8]): 867 nM

CCCCCOc1cc(NC(=O)N(CC(N)=O)Cc2cc(F)ccc2OC)ccc1OC [SM0213]
IC50 (Human C5 [8]): 903 nM

CCCCCOc1cc(NC(=O)N(CCC(=O)O)Cc2cc(F)ccc2OC)ccc1OC [SM0214]
IC50 (Human C5 [8]): 175 nM

CCCCCOc1cc(NC(=O)N(CCC(=O)NCc2ccncc2)Cc2cc(F)ccc2OC)ccc1OC [SM0215]
IC50 (Human C5 [8]): 244 nM

CCCCCOc1cc(NC(=O)N(CCC(=O)N(C)C)Cc2cc(F)ccc2OC)ccc1OC [SM0216]
IC50 (Human C5 [8]): 199 nM

CCCCCOc1cc(NC(=O)N(CCOCc2cn(C)cn2)Cc2cc(F)ccc2OC)ccc1OC [SM0217]
IC50 (Human C5 [8]): 210 nM

COc1ccc(NC(=O)N[C@H]2COC(C)(C)Oc3c(OC)cccc32)cc1OCCCC(C)C [SM0218]
IC50 (Human C5 [8]): 48.6 nM

CCCCCOc1cc(NC(=O)NCc2ccc(Br)cc2OC)ccc1OC [SM0219]
IC50 (Human C5 [8]): 239 nM
